Drawing on US20230279025A1, “KRAS G12D INHIBITORS” (Mirati Therapeutics, Inc., priority 2020, published 2023), this text covers IC50 for 25 compounds.

This test has as its target KRas G12D (Homo sapiens (Human), UniProt P01116, G12D). Description: KRas G12D Binding Assay (TR-FRET displacement of Cy5 labelled tracer). Conditions: GDP-loaded KRAS G12D (amino acids 1:169), 60 minute incubation at 22° C. On the procedure:
After a 60 minute incubation at 22° C., the reaction was measured using a PerkinElmer EnVision multimode plate reader via TR-FRET dual wavelength detection, and the percent of control (POC) calculated using a ratiometric emission factor. […] The POC values were fit to a 4-parameter logistic curve and the IC50 value was determined as the concentration where the curve crosses 50 POC.
ND stands for “not determined.”
In general terms: Time-resolved FRET reads energy transfer from a long-lived donor to a nearby acceptor.

KRas G12D, sequence (P01116 other isoform, or with tags, fused parts or gaps G12D): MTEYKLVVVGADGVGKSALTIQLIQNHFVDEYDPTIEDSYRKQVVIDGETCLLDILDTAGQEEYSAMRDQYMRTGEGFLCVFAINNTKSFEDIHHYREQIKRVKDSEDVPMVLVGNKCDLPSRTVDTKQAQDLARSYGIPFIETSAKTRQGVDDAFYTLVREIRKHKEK

As to `Fc1c(-c2cccc3cccc(OC(F)F)c23)ncc2c(N3C[C@H]4CC[C@@H](C3)N4)nc(OCC34CCCN3CCC4)nc12` [Example 346, 4-((1R,5S)-3,8-diazabicyclo[3.2.1]octan-3-yl)-7-(8-(difluoromethoxy)naphthalen-1-yl)-8-fluoro-2-((tetrahydro-1H-pyrrolizin-7a(5H)-yl)methoxy)pyrido[4,3-d]pyrimidine], the IC50 (commonly the concentration needed to halve the response being measured) was 10.5 nM.
`CCC1(N)CN(c2nc(N3C[C@H]4CC[C@@H](C3)N4)c3cnc(-c4cccc5cccc(Cl)c45)c(F)c3n2)C1` [Example 128, 1-(4-((1R,5S)-3,8-diazabicyclo[3.2.1]octan-3-yl)-7-(8-chloronaphthalen-1-yl)-8-fluoropyrido[4,3-d]pyrimidin-2-yl)-3-ethylazetidin-3-amine] came in with an IC50 of 501 nM.
In turn, `OCCc1cccc2cccc(-c3ncc4c(N5C[C@H]6CC[C@@H](C5)N6)nc(OCC56CCCN5CCC6)nc4c3F)c12` [Example 239, 2-(8-(4-((1R,5S)-3,8-diazabicyclo[3.2.1]octan-3-yl)-8-fluoro-2-((tetrahydro-1H-pyrrolizin-7a(5H)-yl)methoxy)pyrido[4,3-d]pyrimidin-7-yl)naphthalen-1-yl)ethan-1-ol] registered an IC50 of 2 nM.
`CNc1nc(N2CC3CCC(C2)N3)c2cnc(-c3cc(O)cc4ccccc34)c(F)c2n1` [Example 183, 4-[4-(3,8-diazabicyclo[3.2.1]octan-3-yl)-8-fluoro-2-(methylamino)pyrido[4,3-d]pyrimidin-7-yl]naphthalen-2-ol] had a half-inhibitory concentration (IC50) of 393 nM.
`CC(C)c1ncccc1-c1ncc2c(N3C[C@H]4CC[C@@H](C3)N4)nc(OC[C@@]34CCCN3C[C@H](F)C4)nc2c1F` [Example 421, 4-((1R,5S)-3,8-diazabicyclo[3.2.1]octan-3-yl)-8-fluoro-2-(((2R,7aS)-2-fluorohexahydro-1H-pyrrolizin-7a-yl)methoxy)-7-(2-isopropylpyridin-3-yl)pyrido[4,3-d]pyrimidine] yielded an IC50 of 7750 nM.
Compound `Fc1ccccc1-c1ncc2c(N3C[C@H]4CC[C@@H](C3)N4)nc(OCC34CCCN3CCC4)nc2c1F` [Example 264, 4-((1R,5S)-3,8-diazabicyclo[3.2.1]octan-3-yl)-8-fluoro-7-(2-fluorophenyl)-2-((hexahydro-1H-pyrrolizin-7a-yl)methoxy)pyrido[4,3-d]pyrimidine] showed an IC50 of 4700 nM.
Consider `CNC(C)COc1nc(N2CC3CCC(C2)N3)c2cnc(-c3cccc4cccc(Cl)c34)c(F)c2n1` (stereo not shown) [Example 363, bis(2,2,2-trifluoroacetate)], for which the IC50 was found to be 3930 nM.
Compound `Oc1cc(-c2ncc3c(N4C[C@H]5CC[C@@H](C4)N5)ncnc3c2F)c2ccccc2c1` [Example 181, 4-(4-((1R,5S)-3,8-diazabicyclo[3.2.1]octan-3-yl)-8-fluoropyrido[4,3-d]pyrimidin-7-yl)naphthalen-2-ol] had an IC50 of 572 nM.
Next, `Cc1ccccc1-c1ncc2c(N3C[C@H]4CC[C@@H](C3)N4)nc(OCC34CCCN3CCC4)nc2c1F` [Example 272, 4-((1R,5S)-3,8-diazabicyclo[3.2.1]octan-3-yl)-8-fluoro-2-((hexahydro-1H-pyrrolizin-7a-yl)methoxy)-7-(o-tolyl)pyrido[4,3-d]pyrimidine]: 1180 nM; `Fc1cccc(-c2ncc3c(N4C[C@H]5CC[C@@H](C4)N5)nc(OCC45CCCN4CCC5)nc3c2F)c1OC(F)F` [Example 302, 4-((1R,5S)-3,8-diazabicyclo[3.2.1]octan-3-yl)-7-(2-(difluoromethoxy)-3-fluorophenyl)-8-fluoro-2-((hexahydro-1H-pyrrolizin-7a-yl)methoxy)pyrido[4,3-d]pyrimidine]: 43.6 nM.
`C#Cc1cccc2cc(O)cc(-c3ncc4c(N5CC6CCC(C5)N6)nc(OC[C@@]56CCCN5C[C@H](OC)C6)nc4c3F)c12` (stereo in doubt) [Example 410, 4-(4-((1R,5S)-3,8-diazabicyclo[3.2.1]octan-3-yl)-8-fluoro-2-((2-methoxytetrahydro-1H-pyrrolizin-7a(5H)-yl)methoxy)pyrido[4,3-d]pyrimidin-7-yl)-5-ethynylnaphthalen-2-ol] displayed an IC50 of 1 nM.
On to `Fc1c(-c2cccc(Cl)c2C2CC2)ncc2c(N3CC4CCC(C3)N4)nc(OCC34CCCN3C[C@H](F)C4)nc12` (mixture of isomers) [Example 342, 4-((1R,5S)-3,8-diazabicyclo[3.2.1]octan-3-yl)-7-(3-chloro-2-cyclopropylphenyl)-8-fluoro-2-((2-fluorotetrahydro-1H-pyrrolizin-7a(5H)-yl)methoxy)pyrido[4,3-d]pyrimidine (racemic, trans)], for which the half-inhibitory concentration (IC50) was determined as 3.4 nM.
`CC(C)c1ccc(O)cc1-c1ncc2c(N3C[C@H]4CC[C@@H](C3)N4)nc(OCC34CCCN3CCC4)nc2c1F` [Example 403, 3-(4-((1R,5S)-3,8-diazabicyclo[3.2.1]octan-3-yl)-8-fluoro-2-((tetrahydro-1H-pyrrolizin-7a(5H)-yl)methoxy)pyrido[4,3-d]pyrimidin-7-yl)-4-isopropylphenol] returned an IC50 of 1.9 nM.
`Fc1c(-c2cccc3cccc(Cl)c23)ncc2c(N3CC4CCC(C3)N4)nc(OC[C@@]34CCCN3C[C@@H](C(F)(F)F)C4)nc12` (mixture of isomers) [Example 382]: the IC50 was 21.1 nM.
`CN1CC[C@H](Oc2nc(N3C[C@H]4CC[C@@H](C3)N4)c3cnc(-c4cccc5cccc(Cl)c45)c(F)c3n2)C1` [Example 359, 4-((1R,5S)-3,8-diazabicyclo[3.2.1]octan-3-yl)-7-(8-chloronaphthalen-1-yl)-8-fluoro-2-(((S)-1-methylpyrrolidin-3-yl)oxy)pyrido[4,3-d]pyrimidine] registered an IC50 of 1640 nM.
In turn, `CN1C[C@H](NC(=O)c2ccc(C=O)cc2)C[C@H]1COc1nc(N2C[C@H]3CC[C@@H](C2)N3)c2cnc(-c3cccc4cccc(Cl)c34)c(F)c2n1` [Example 353, N-((3R,5S)-5-(((4-((1R,5S)-3,8-diazabicyclo[3.2.1]octan-3-yl)-7-(8-chloronaphthalen-1-yl)-8-fluoropyrido[4,3-d]pyrimidin-2-yl)oxy)methyl)-1-methylpyrrolidin-3-yl)-4-formylbenzamide] gave an IC50 of 333 nM.
`C=Cc1cccc2cccc(-c3ncc4c(N5C[C@H]6CC[C@@H](C5)N6)nc(OC[C@@H]5CCCN5C)nc4c3F)c12` [Example 201, 4-((1R,5S)-3,8-diazabicyclo[3.2.1]octan-3-yl)-8-fluoro-2-(((S)-1-methylpyrrolidin-2-yl)methoxy)-7-(8-vinyInaphthalen-1-yl)pyrido[4,3-d]pyrimidine]: the IC50 was 70.2 nM.
Consider `Fc1c(-c2cccc3cccc(C(F)(F)F)c23)ncc2c(N3C[C@H]4CC[C@@H](C3)N4)nc(OC[C@@]34CCCN3C[C@H](F)C4)nc12` [Example 419, 4-((1R,5S)-3,8-diazabicyclo[3.2.1]octan-3-yl)-8-fluoro-2-(((2R,7aS)-2-fluorotetrahydro-1H-pyrrolizin-7a(5H)-yl)methoxy)-7-(8-(trifluoromethyl)naphthalen-1-yl)pyrido[4,3-d]pyrimidine], for which the IC50 came to 50.9 nM.
`Oc1ccccc1-c1ncc2c(N3C[C@H]4CC[C@@H](C3)N4)nc(OCC34CCCN3CCC4)nc2c1F` [Example 267, 2-(4-((1R,5S)-3,8-diazabicyclo[3.2.1]octan-3-yl)-8-fluoro-2-((hexahydro-1H-pyrrolizin-7a-yl)methoxy)pyrido[4,3-d]pyrimidin-7-yl)phenol]: the IC50 came out at 3260 nM.
`Oc1cc(-c2ncc3c(N4C[C@H]5CC[C@@H](C4)N5)nc(OCC45CCCN4CCC5)nc3c2F)c2c(F)cccc2c1` [Example 367, 4-(4-((1R,5S)-3,8-diazabicyclo[3.2.1]octan-3-yl)-8-fluoro-2-((tetrahydro-1H-pyrrolizin-7a(5H)-yl)methoxy)pyrido[4,3-d]pyrimidin-7-yl)-5-fluoronaphthalen-2-ol tris(2,2,2-trifluoroacetate)] registered an IC50 of 0.7 nM.
As to `Oc1cc(-c2ncc3c(N4C[C@H]5CC[C@@H](C4)N5)nc(OC[C@@]45CCCN4C[C@H](F)C5)nc3c2F)c2c(F)cccc2c1` [Example 282, 4-(4-((1R,5S)-3,8-diazabicyclo[3.2.1]octan-3-yl)-8-fluoro-2-(((2R,7aS)-2-fluorohexahydro-1H-pyrrolizin-7a-yl)methoxy)pyrido[4,3-d]pyrimidin-7-yl)-5-fluoronaphthalen-2-ol], the IC50 worked out at 0.7 nM.
`FCCc1cccc2cccc(-c3ncc4c(N5C[C@H]6CC[C@@H](C5)N6)nc(OCC56CCCN5CCC6)nc4c3F)c12` [Example 248, 4-((1R,5S)-3,8-diazabicyclo[3.2.1]octan-3-yl)-8-fluoro-7-(8-(2-fluoroethyl)naphthalen-1-yl)-2-((tetrahydro-1H-pyrrolizin-7a(5H)-yl)methoxy)pyrido[4,3-d]pyrimidine] came in with an IC50 of 3.2 nM.
The compound `CC(C)c1ccncc1-c1ncc2c(N3C[C@H]4CC[C@@H](C3)N4)nc(OCC34CCCN3CCC4)nc2c1F` [Example 306, 4-((1R,5S)-3,8-diazabicyclo[3.2.1]octan-3-yl)-8-fluoro-2-((hexahydro-1H-pyrrolizin-7a-yl)methoxy)-7-(4-isopropylpyridine-3-yl)pyrido[4,3-d]pyrimidine] gave an IC50 of 260 nM.
The compound `O[C@@H]1C[C@@H]2CN(c3nc(OCCn4ccnc4CF)nc4c(F)c(-c5cccc6cccc(Cl)c56)ncc34)C[C@H]1N2` [Example 168, (1R,5R,6R)-3-(7-(8-chloronaphthalen-1-yl)-8-fluoro-2-(2-(2-(fluoromethyl)-1H-imidazol-1-yl)ethoxy)pyrido[4,3-d]pyrimidin-4-yl)-3,8-diazabicyclo[3.2.1]octan-6-ol] displayed an IC50 of 583 nM.
With `Oc1cc(-c2ncc3c(N4CC5CCC(C4)N5)nc(OCC45CCCN4C[C@H](F)C5)nc3c2F)c2c(Cl)cccc2c1` (mixture of isomers) [Example 330, 4-(4-((1R,5S)-3,8-diazabicyclo[3.2.1]octan-3-yl)-8-fluoro-2-((2-fluorotetrahydro-1H-pyrrolizin-7a(5H)-yl)methoxy)pyrido[4,3-d]pyrimidin-7-yl)-5-chloronaphthalen-2-ol (racemic, trans)], the IC50 stood at 2.5 nM.
